Results taken from publication doi:10.1101/2020.04.06.027102v2 (biorxiv, 2020).

Tests used:
Assay in all cases: UV-visible dark absorbance spectrum of purified reconstituted rhodopsin
Format in all cases: binding
[1] = target: T1, Eumaeus atala UVRh (Eumaeus atala, UniProt A0A7T3U8H7); settings: covalent, 40 uM 11-cis-retinal
T1 sequence (A0A7T3U8H7 1-406): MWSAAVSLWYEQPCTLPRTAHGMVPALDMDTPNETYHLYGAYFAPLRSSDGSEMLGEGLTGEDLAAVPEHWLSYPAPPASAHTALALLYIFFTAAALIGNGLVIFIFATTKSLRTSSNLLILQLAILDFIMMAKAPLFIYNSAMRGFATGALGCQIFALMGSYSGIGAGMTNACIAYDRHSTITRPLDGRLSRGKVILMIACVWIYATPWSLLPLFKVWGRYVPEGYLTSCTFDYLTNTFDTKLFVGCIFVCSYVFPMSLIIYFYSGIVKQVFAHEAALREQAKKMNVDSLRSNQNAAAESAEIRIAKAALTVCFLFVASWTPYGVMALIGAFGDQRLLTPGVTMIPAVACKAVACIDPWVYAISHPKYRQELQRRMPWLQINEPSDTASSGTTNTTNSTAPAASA

[2] = target: T2, Eat-BRh1 (BRh1, Eat-B1) (Eumaeus atala, UniProt A0A7T3U8I9); settings: covalent, 40 uM 11-cis-retinal
T2 sequence (A0A7T3U8I9 1-380): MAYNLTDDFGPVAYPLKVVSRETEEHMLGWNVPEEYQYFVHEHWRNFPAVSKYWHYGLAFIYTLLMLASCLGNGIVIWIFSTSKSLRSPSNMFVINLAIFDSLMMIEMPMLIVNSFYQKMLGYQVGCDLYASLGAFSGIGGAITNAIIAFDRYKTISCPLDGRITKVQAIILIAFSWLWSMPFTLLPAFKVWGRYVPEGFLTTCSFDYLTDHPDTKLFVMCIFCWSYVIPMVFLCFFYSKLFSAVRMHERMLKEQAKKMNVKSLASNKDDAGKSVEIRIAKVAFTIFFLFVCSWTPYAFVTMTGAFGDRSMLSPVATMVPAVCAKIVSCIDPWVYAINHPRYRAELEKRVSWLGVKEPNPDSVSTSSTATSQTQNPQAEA

[3] = target: T3, Eat-BRh2 (BRh2, Eat-B2) (Eumaeus atala, UniProt A0A7T3U8M8); settings: covalent, 40 uM 11-cis-retinal
T3 sequence (A0A7T3U8M8 1-380): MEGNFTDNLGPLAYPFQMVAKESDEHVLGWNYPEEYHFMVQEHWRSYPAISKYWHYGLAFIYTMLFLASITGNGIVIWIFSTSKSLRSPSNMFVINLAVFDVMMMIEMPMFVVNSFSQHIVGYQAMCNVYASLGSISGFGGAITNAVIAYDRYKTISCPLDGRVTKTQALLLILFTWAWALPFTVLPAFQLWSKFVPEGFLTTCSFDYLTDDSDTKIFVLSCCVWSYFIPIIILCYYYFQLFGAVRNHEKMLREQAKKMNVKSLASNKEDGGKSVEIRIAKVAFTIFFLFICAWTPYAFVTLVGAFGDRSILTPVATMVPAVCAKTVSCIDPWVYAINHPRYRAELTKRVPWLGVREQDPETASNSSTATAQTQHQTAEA

[4] = target: T4, Eumaeus atala LWRh (LW opsin) (Eumaeus atala, UniProt A0A7T3U8W4); settings: covalent, 40 uM 11-cis-retinal, figure legend prints 567 nm
T4 sequence (A0A7T3U8W4 1-381): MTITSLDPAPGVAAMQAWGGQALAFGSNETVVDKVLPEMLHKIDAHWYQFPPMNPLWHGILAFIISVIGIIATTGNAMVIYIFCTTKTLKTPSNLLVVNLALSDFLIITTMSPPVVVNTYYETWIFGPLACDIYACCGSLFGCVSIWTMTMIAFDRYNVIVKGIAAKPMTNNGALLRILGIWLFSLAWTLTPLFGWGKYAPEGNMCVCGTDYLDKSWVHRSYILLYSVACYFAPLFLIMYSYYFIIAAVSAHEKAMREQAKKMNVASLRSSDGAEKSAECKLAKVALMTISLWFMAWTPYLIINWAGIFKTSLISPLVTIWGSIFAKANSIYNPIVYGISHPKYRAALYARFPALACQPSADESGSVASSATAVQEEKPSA

λmax [1]: 352 ± 3.5 nm
λmax [2]: 435 ± 2 nm
λmax [3]: 500 ± 2 nm
λmax [4]: 569 ± 2 nm
SMILES: CC1=C(/C=C/C(C)=C/C=C\C(C)=C\C=O)C(C)(C)CCC1 [11-cis-retinal]
